According to PubChem BioAssay AID2060509 (Molecular Pharmacology Branch, DTP, NCI, 2025):
Several values for one entry are separate records, joined by “and”; a condition that tells them apart may be missing. Identical values can stand only once.

System: 485176-168-R4-J1-PDC spheroids with HUVEC/MSC, viability
Assay: Anticancer human tumor 485176-168-R4-J1-PDC patient-derived pancreatic adenocarcinoma cell line growth inhibition [GQUAD]
Settings: for viability, T/C: stronger effect = lower value
Source text: DNA G-quadruplex Stabilizer Agents in Combinations in Complex Spheroids
A high-throughput screen of multi-cell type tumor spheroids was designed to identify active combinations of DNA G-quadruplex stabilizer agents and targeted small molecules. Complex spheroids include a stromal component modeled by human endothelial cells (HUVEC) and fibroblasts modeled by human mesenchymal stem cells (MSCs). The concentration ranges selected for each drug and investigational agent were based upon clinically achievable concentrations if the clinical Cmax of the agent was known.
Compounds. The drugs and investigational agents: pidnarulex (CX-5461; NSC782164), APTO-253 (NSC789042), BRACO-19 (NSC847499), peposertib (NSC802822), ceralasertib (NSC780249), elimusertib (NSC800525), camonsertib (NSC841442), AZD-1390 (NSC803789), olaparib (NSC753686), talazoparib (NSC767125), ART-558 (NSC835418), sotorasib (NSC818433), MRTX-1133 (NSC836407), SN-38 (NSC673596), topotecan (NSC609699), etoposide (NSC141540), doxorubicin (NSC123127), gemcitabine (NSC613327), 5-fluorouracil (NSC19893), paclitaxel (NSC125973), vemurafenib (NSC761431), panobinostat (NSC761190), R-306465 (JNJ-16241199; NSC773264), adavosertib (NSC754352), TP-3654 (NSC805149), carboplatin (NSC241240), KSQ-4279 (NSC840948), and staurosporine (NSC755774) were obtained from the National Cancer Institute (NCI) Developmental Therapeutics Program Chemical Repository (34). The FDA-approved anticancer drug set is available from the NCI Developmental Therapeutics Program. […] The stock solutions were prepared in dimethyl sulfoxide (DMSO, Sigma-Aldrich, St. Louis, MO, cat. D2650) at 800-fold the tested concentration and stored at -70 degrees C prior to their use. All drugs and investigational agents were tested over a range starting from a high concentration at or near the clinical Cmax and decreasing in half-log increments. If the clinical Cmax for an agent had not been determined, the highest concentration tested was 10 microM.
2.3 Cell Culture. All cells were maintained in an incubator at 37 degrees C and 5% CO2 with 95% humidity. The PDC lines were cultured according to standard operating procedures established by the NCI PDMR. All PDCs were thawed and cultured in Matrigel-coated flasks prepared with a working solution of 1X Ham's F-12 nutrient mix, without supplementation (Invitrogen, cat. 11765054), 100 U/mL penicillin-streptomycin (Invitrogen, cat. 15140122), and 2.5% Matrigel (Corning Inc., cat. 354248) for the first three passages. The 857933-349-R-J2-PDC line was cultured in 6C/Colon 1B media, which includes advanced DMEM/F-12 (Thermo Fisher Scientific, cat. 12634028), 10 mM HEPES (Thermo Fisher Scientific, cat. 15630080), 1X GlutaMAX supplement (Thermo Fisher Scientific, cat. 35050061), 0.1 mg/mL primocin (InvivoGen, cat. ant-pm-2), 10% defined fetal bovine serum, heat inactivated (HyClone Laboratories Inc., cat. SH30070.03HI), 50% L-WRN conditioned media (ATCC, cat. CRL-3276), 1.25 mM N-Acetyl-L-cysteine (Sigma-Aldrich, cat. A9165), 10 mM nicotinamide (Sigma-Aldrich, cat. N0636), 1X B-27 supplement (Thermo Fisher Scientific, cat. 17504044), 1X N-2 supplement (Thermo Fisher Scientific, cat. 17502048), 10 microM Y-27632 dihydrochloride (Tocris Bioscience, cat. 1254), and 50 ng/mL human EGF recombinant protein (Thermo Fisher Scientific, cat. PHG0311). The 485176-168-R4-J1-PDC line was cultured in Panc media, which includes all 6C/Colon 1B media components plus 100 ng/mL human FGF-10 (Thermo Fisher Scientific, cat. 100-26), 500 nM SB-431542 (Selleckchem, cat. S1067), and gastrin (Tocris, cat. 3006).
[…]

[1] = compound alone, run of 03/18/2024
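Note: spheroids exposed to compounds for seven days before readout.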
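Throughout, for viability, T/C: percent viability relative to DMSO vehicle control wells as 100%.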

SMILES	viability, T/C (compound 0.0316 µM)	viability, T/C (compound 0.1 µM)	viability, T/C (compound 0.316 µM)	viability, T/C (compound 1 µM)	viability, T/C (compound 3.16 µM)	viability, T/C (compound 10 µM)	IC50 (curve of compound)	IC50 [1]	IC50 (compound alone, run of 03/26/2024)	viability, T/C (compound 0.000999 µM)	viability, T/C (compound 0.00316 µM)	viability, T/C (compound 0.00999 µM)	viability, T/C (compound 0.0999 µM)
COc1cc(C2c3cc4c(cc3C(OC3OC5COC(C)OC5C(O)C3O)C3COC(=O)C23)OCO4)cc(OC)c1O (stereo not given)	102% and 101% and 95%	80.2% and 68.8% and 67.7%	46.6% and 39.1% and 39.6%	39.9% and 38.8% and 40.8%	25.9% and 24.6% and 23.1%	13.2% and 13.4% and 11%	406 nM and 255 nM and 269 nM						
COc1ccc([C@@H](O)c2cc(-c3ncnc4cc(N5CCOCC5)ccc34)c(F)cc2Cl)nn1	89.1% and 113% and 89.2%	75.3% and 88.3% and 77.7%	87.5% and 97.3% and 96%	73.4% and 71.1% and 64.4%	46.6% and 64.8% and 57.1%	31.4% and 30% and 28.4%	2720 nM and 4600 nM and 3810 nM						
COc1cccc2c1C(=O)c1c(O)c3c(c(O)c1C2=O)CC(O)(C(=O)CO)CC3OC1CC(N)C(O)C(C)O1 (stereo not given)	94.5% and 91.5% and 81.9%	59.7% and 68.6% and 56.4%	51.7% and 52.9% and 48.3%	16% and 16.9% and 15.1%	4.15% and 1.93% and 4.74%	0.3% and 0.31% and 0.43%	215 nM and 283 nM and 193 nM						
COc1ncnc(C2CC2)c1-c1ncc2cnn(Cc3ccc(-c4nc(C(F)(F)F)cn4C(C)C)cc3)c2n1	95.3% and 93.3% and 91.2%	96.5% and 107% and 90.4%	104% and 96.2% and 105%	84.1% and 92.2% and 106%	102% and 107% and 93.4%	103% and 106% and 98.5%	> 10000 nM						
Cc1[nH]c2ccc(F)cc2c1-c1nc2c3cccnc3c3ncccc3c2[nH]1		101% [middle of 12 runs]	97.9% [middle of 12 runs]	99.5% [middle of 12 runs]		78.8% [middle of 12 runs]		> 10000 nM	> 10000 nM				
Cc1[nH]c2ccccc2c1CCNCc1ccc(/C=C/C(=O)NO)cc1	81.7% and 86% and 77.5%		14.2% and 10.4% and 16.8%				168 nM and 102 nM and 138 nM			113% and 108% and 97.3%	115% and 82.3% and 88%	94.8% and 93.9% and 87%	89.2% and 50.2% and 66%
Cc1cccc(N(C)C(=O)C2C(O)CCN2c2nc(C)cc(C(F)(F)F)c2C#N)c1 (stereo not given)	103% and 99% and 105%	85.8% and 79.2% and 87.1%	84.3% and 101% and 97.6%	85.8% and 105% and 76.4%	97.7% and 103% and 97.5%	95.4% and 91.5% and 89.9%	> 10000 nM						
Cc1cnc(CNC(=O)c2c(=O)c3ccc(N4CCCN(C)CC4)nc3n3c2sc2ccccc23)cn1	90.3% [middle of 12 runs]	78.8% [middle of 12 runs]	64.4% [middle of 12 runs]	55% [middle of 12 runs]	39.6% [middle of 12 runs]	36.6% [middle of 12 runs]		1.17 µM [middle of 10 runs]					
Cn1ncnc1[C@H]1c2n[nH]c(=O)c3cc(F)cc(c23)N[C@@H]1c1ccc(F)cc1	98.8% and 101% and 88.8%		75.9% and 98.5% and 85.9%				> 316 nM			99.2% (2×) and 86.5%	95.2% and 94% and 85.8%	96.4% and 108% and 91.5%	91.2% and 91.7% and 89.7%
Nc1ccn(C2OC(CO)C(O)C2(F)F)c(=O)n1 (stereo not given)	76.8% and 70.1% and 75.6%	16.7% and 16.1% and 15.4%	11.3% and 7.32% and 9.64%	10.3% and 9.3% and 8.42%	10.7% and 12.2% and 11.5%	13% and 12.5% and 11.1%	52.9 nM and 48.4 nM and 51.6 nM						
O=C(NO)c1cnc(N2CCN(S(=O)(=O)c3ccc4ccccc4c3)CC2)nc1	83.4% and 107% and 97.9%	99.5% and 73.2% and 76.1%	67.6% and 78.2% and 61.2%	7.2% and 12.1% and 11%	0.3% and 0.31% and 0.2%	0.3% and 0.31% and 0.29%	443 nM and 512 nM and 378 nM						
O=C(c1cc(Cc2n[nH]c(=O)c3ccccc23)ccc1F)N1CCN(C(=O)C2CC2)CC1	94.9% and 101% and 98%	100% and 97.5% and 90.3%	84.3% and 99.6% and 85.8%	89.3% and 98.4% and 81.9%	85.7% and 102% and 88.1%	80% and 77.6% and 68.8%	> 10000 nM						
O=c1[nH]cc(F)c(=O)[nH]1	95.9% and 97.3% and 84.9%	85.5% and 91% and 89.7%	79.7% and 75.4% and 64%	56.6% and 60.5% and 59.2%	48.2% and 46.2% and 45.4%	46.8% and 46.7% and 54.9%	2610 nM and 2750 nM and > 10000 nM						
